One series has as its system Caco-2. Description: Membrane permeability test of cyclic peptides (Caco-2, modified/improved method of WO 2018/124162). The settings on record: Table 36; Papp; sequences having Papp ≥ 1.0 × 10^−6 at ARC = 3. A general note: Passage across Caco-2 layers is used to estimate intestinal permeability.
Experiment in series [1]: as above
The settings on record: human, Caco-2, Caco-2 (cm/sec), Table 35; Papp; sequences having Papp ≥ 1.0 × 10^−6 at ARC = 3.

The structures appear in SMILES notation. Where two headings read alike, the source gives them in different places. Where a SMILES comes first, the peptide text is derived from it. Bridges are numbered along the chain shown (N, C = ends). [ ]: non-standard residue; d: D form. The star is where a group is joined. NMeAbu(3,3-F2-piperidino) = CN[C@@H](CCN1CCCC(F)(F)C1)C(=O)O; NMeF = CN[C@@H](Cc1ccccc1)C(=O)O; NMeD = CN[C@@H](CC(=O)O)C(=O)O; NMeL = CN[C@@H](CC(C)C)C(=O)O; NMeV = CN[C@H](C(=O)O)C(C)C; NMeA = CN[C@@H](C)C(=O)O; Piperidide = C1CCN(*)CC1; Bn = c1ccc(C*)cc1; Sar = CNCC(=O)O; tBu = CC(C)(C)*

Regarding `CC(C)C[C@@H]1NC(=O)[C@H](C)N(C)C(=O)C[C@@H](C(=O)N2CCCCC2)NC(=O)[C@H](CC(C)C)N(C)C(=O)CN(C)C(=O)[C@H]([C@@H](C)O)NC(=O)[C@H](C)N(C)C(=O)[C@H](Cc2ccccc2)N(C)C(=O)[C@H](COCc2ccccc2)NC(=O)[C@H](Cc2ccccc2)N(C)C(=O)[C@H](CC(C)C)N(C)C1=O` [pd179] ([NMeA]L[NMeL][NMeF]S(Bn)[NMeF][NMeA]T[Sar][NMeL]D-Piperidide; lactam N-11), the “Caco-2” value in the series on Caco-2 is 2e-06 cm/s. Moreover, the Papp – broadly, the rate of passage across a membrane or cell layer, normalised by area and donor concentration – in series [1] worked out at 2 ×10⁻⁶ cm/s.

Take `CC(C)C[C@@H]1NC(=O)[C@H](Cc2ccccc2)N(C)C(=O)[C@@H](C)NC(=O)C[C@@H](C(=O)N2CCCCC2)N(C)C(=O)[C@H](Cc2ccccc2)N(C)C(=O)[C@H](Cc2ccccc2)N(C)C(=O)[C@H](COC(C)(C)C)NC(=O)[C@H](CC(C)C)N(C)C(=O)CN(C)C(=O)[C@H]([C@@H](C)O)NC(=O)[C@H](CC(C)C)N(C)C1=O` [pd224] ([dA][NMeF]L[NMeL]T[Sar][NMeL]S(tBu)[NMeF][NMeF][NMeD]-Piperidide; lactam N-11): the apparent permeability coefficient (Papp) (Caco-2, Caco-2 (cm/sec)) amounted to 1 ×10⁻⁶ cm/s.

Turning to `CC[C@H](C)[C@@H]1NC(=O)[C@H](CC(C)C)N(C)C(=O)CN(C)C(=O)[C@H]([C@@H](C)O)NC(=O)[C@H](Cc2ccccc2)N(C)C(=O)[C@H](CC(C)C)NC(=O)[C@H](Cc2ccccc2)N(C)C(=O)[C@@H](CC(C)C)NC(=O)C[C@@H](C(=O)N2CCCCC2)NC(=O)[C@H](CC(C)C)N(C)C(=O)[C@H](Cc2ccccc2)N(C)C1=O` [pd225] ([dL][NMeF]L[NMeF]T[Sar][NMeL]I[NMeF][NMeL]D-Piperidide; lactam N-11), the Papp (Caco-2, Caco-2 (cm/sec)) turned out to be 1 ×10⁻⁶ cm/s. As for `CC(C)C[C@@H]1NC(=O)CN(C)C(=O)[C@H](Cc2ccccc2)N(C)C(=O)[C@@H](C)NC(=O)C[C@@H](C(=O)N2CCCCC2)NC(=O)[C@H](Cc2ccccc2)N(C)C(=O)[C@H](Cc2ccccc2)N(C)C(=O)[C@H](COC(C)(C)C)NC(=O)[C@H](CC(C)C)N(C)C(=O)[C@H](Cc2ccccc2)NC(=O)[C@H]([C@@H](C)O)NC1=O` [pd248] ([dA][NMeF][Sar]LTF[NMeL]S(tBu)[NMeF][NMeF]D-Piperidide; lactam N-11), the Papp (Caco-2, Caco-2 (cm/sec) Papp) was determined as 0.014 ×10⁻⁶ cm/s. In the case of `CC(C)C[C@@H]1NC(=O)[C@H](Cc2ccccc2)N(C)C(=O)[C@@H](C(C)C)NC(=O)C[C@@H](C(=O)N2CCCCC2)NC(=O)[C@H](C(C)C)N(C)C(=O)[C@H](Cc2ccccc2)N(C)C(=O)[C@H](COC(C)(C)C)NC(=O)[C@H](CCN2CCCC(F)(F)C2)N(C)C(=O)CN(C)C(=O)[C@H]([C@@H](C)O)NC(=O)[C@H](CC(C)C)N(C)C1=O` [pd387] ([dV][NMeF]L[NMeL]T[Sar][NMeAbu(3,3-F2-piperidino)]S(tBu)[NMeF][NMeV]D-Piperidide; lactam N-11), the Papp (Caco-2, Caco-2) is 3.5 ×10⁻⁶ cm/s.

The values above are taken from US20230096766A1, “AMINO ACID HAVING FUNCTIONAL GROUP CAPABLE OF INTERMOLECULAR HYDROGEN BONDING, PEPTIDE COMPOUND CONTAINING SAME AND METHOD FOR PRODUCTION THEREOF” (Chugai Seiyaku Kabushiki Kaisha, priority 2018, published 2023).
